Measurements as given in patent US7288273B1, “Gallotannins and ellagitannins as regulators of cytokine release” (The Penn State Research Foundation, priority 2000, dated 2007).

Legend:
[1] = tested on: IL-1β secretion from h-PBMC's; assay: IL-1β release from h-PBMC's, ELISA; format: cell-based, human; details: for IL-1β secreted in the presence of 17c-20c: h-PBMC's 2nd subject, ± SD
Description: Authentic samples of agrimoniin and coriariin A were supplied by Professor Yoshida (Okayama University, Japan). Dimeric gallotannin (analog of coriariin A) and β-D-PGG were synthesized as described. LPS (E. coli 055:B5 phenol extract, MW range 50-100 KD). Ficoll-Histopaque (ρ=1.077 g/mL), Fetal Bovine Serum, sterile, hybridoma tested (FCS), gentamicin 10 mg/mL. L-glutamine, 200 mM. Dextran B-512 Leuconostoc Av M.W. 580000, and Trypan Blue stain were purchased from Sigma. Hanks Buffer Saline Solution 1×, with phenol red, mediatech (HBSS) and RPMI 1640 1×, mediatech were purchased from Fisher Scientific, Human IL-1β and TNF-α Enzyme Linked ImmunoSorbent Assay (ELISA) kits were purchased from R and D Systems, Minneapolis, Minn. Fresh heparinized blood was obtained from health human subjects (ages 20-34).
Dose-Response Data: General Procedure. H-PBMC's were isolated by reported procedures (10. 18). The cells counted and the viability was determined by Trypan Blue exclusion (typically, viability exceeded 95%). The concentration of the cells in the 0.5 mL wells was adjusted to 1×10^6 cells/well by diluting with the required amount of RPMI.
The appropriate amount of a tannin (or LPS) stock solution in HBSS was added to each well to furnish the concentration values reported in the Figures. […] The culture plates were incubated in a 5% CO2, 37° C. humidified incubator for the indicated time. At the end of the time interval, 450 μL of the culture supernatant from each well was harvested, after centrifugation at 400 g, 25° C., 10 min. with brake, and stored at −78° C. pending ELISA analysis for the cytokine(s). The ELISA assays were conducted per the manufacturer's instructions using standard calibration curves to calculate cytokine concentration from observed absorbance readings. The cytokine values reported are averages of three runs±SE.
The dimeric antitumor ellagitannins coriariin A and agrimoniin, the monomeric gallotannin β-D-pentagalloylglucose (β-D-PGG) and the dimeric gallotannin of this invention were all examined in this study. The dimeric gallotannin is an analog of coriariin A and is identical to the parent ellagitannin except that the galloyl rings at O(4) and O(6) are not joined in a hexahydroxydiphenoyl (HHDP) linkage. h-PBMC's were incubated with the compound under investigation for the indicated length of time and the amounts of both IL-1β and, independently, TNF-α, present in the culture supernatants was determined using commercially available ELISA kits. In each case, LPS was used as a positive control while untreated cells were reserved as negative controls.
In the third study, compounds 17c-20c were examined for their ability to induce secretion of IL-1β from h-PBMC's (FIG. 16). Recall from the introduction that the cytokine IL-1β is also released in an LPS-stimulated septic shock response. The compounds that cause very little secretion of IL-1β or none at all will be the optimal compounds for potential septic shock therapeutics because they will be less likely themselves to induce a septic shock response.

[2] = tested on: LPS induced TNF-α secretion from h-PBMC's; assay: Inhibition of LPS induced TNF-α secretion from h-PBMC's; format: cell-based, human; details: for TNF-α secreted in the presence of LPS and 17c-20c: compound 10 μg/mL added after 45 minutes, h-PBMC's 3rd subject; for TNF-α secreted in the presence of LPS and 17c-20c / TNF-α secreted in the presence of LPS and 19c / 20c / TNF-α secreted in the presence of LPS and 18c-20c: ± SD; for TNF-α secreted in the presence of LPS and 19c / 20c: 8 h incubation; for TNF-α secreted in the presence of LPS and 19c / 20c / TNF-α secreted in the presence of LPS and 18c-20c: 4th subject
Description: In the second study, the ability of compounds 17c-20c to inhibit LPS induced TNF-α production in h-PBMC's was investigated using four assays. The first experiment was a kinetics run in which the h-PBMC's were initially incubated with a fixed concentration of LPS (5 μg/mL) for 45 minutes. This incubation period was followed by addition of a fixed concentration (10 μg/mL) of compounds 17c-20c. The cells were harvested at varying intervals of time. […] The optimal time was determined by comparing the amount of TNF-α secreted by LPS alone to the amount of TNF-α secreted by LPS and substrate at each time point.
The second assay determined the minimum amount of substrate required for inhibition. LPS (10 μg/mL) was incubated with h-PBMC's for 45 minutes followed by addition of 17c-20c at varying concentrations. The cell culture supernatant was harvested after 8 hours. The inherent variability in using cells from different subjects, or in the day of assay, made it difficult to compare overall effectiveness of inhibitors. Therefore, to more easily identify the concentration at which maximum inhibition occurs for a given compound, the TNF-α secretion was normalized by calculating a percent of maximum secretion value (based on LPS alone) (FIG. 13). […] The optimal concentration for inhibition varied between substrates, but the general dose response trend was the same. Overall, the maximum inhibition was 45% for 18c and 20c, and 25% for 19c.
The third assay investigated the ability of 17c, 18c, and 20c to inhibit LPS induced TNF-α secretion using a smaller dosage of LPS (5 μg/mL) (FIG. 14). Again, the response was dose dependent. The maximum inhibition was 45% for 17c and 20c, and 35% for 18c.
In the fourth assay the varying concentrations of substrates 17c-20c and LPS were added at the same time to determine the effect of addition sequence on the inhibition of TNF-α secretion (FIG. 15). The addition time seemed to make a difference in the overall dose response trend. However, maximum inhibition was the same as when the compounds were added 45 minutes after LPS addition (about 40% for each compound).
Finally, in the last study, analogs 19c and 20c were again tested for inhibition LPS induced TNF-α secretion (FIG. 17). In this assay a smaller dose of LPS was used to determine if inhibition was greater when much lower doses of LPS were present. The substrates were added 45 minutes after LPS addition and the cells were harvested after 8 hours. It doesn't appear as though the substrates are better inhibitors when smaller amounts of LPS are used, again perhaps reflecting receptor saturation with LPS at this dosage.

[3] = LPS 10 μg/mL, substrate added after 45 minutes, 8 hours
[4] = compound 0.6 μM added 45 minutes after LPS 10 μg/mL, 8 hours
[5] = compound 2.9 μM added 45 minutes after LPS 10 μg/mL, 8 hours
[6] = compound 5.9 μM added 45 minutes after LPS 10 μg/mL, 8 hours
[7] = compound 11.7 μM added 45 minutes after LPS 10 μg/mL, 8 hours
[8] = compound 23.5 μM added 45 minutes after LPS 10 μg/mL, 8 hours

| SMILES | IL-1β secreted in the presence of 17c-20c ([1]; compound 0.6 μM) [pg/mL] | IL-1β secreted in the presence of 17c-20c ([1]; compound 2.9 μM) [pg/mL] | IL-1β secreted in the presence of 17c-20c ([1]; compound 5.9 μM) [pg/mL] | IL-1β secreted in the presence of 17c-20c ([1]; compound 11.8 μM) [pg/mL] | IL-1β secreted in the presence of 17c-20c ([1]; compound 17.6 μM) [pg/mL] | IL-1β secreted in the presence of 17c-20c ([1]; compound 23.5 μM) [pg/mL] | IL-1β secreted in the presence of 17c-20c ([1]; compound 29.4 μM) [pg/mL] | TNF-α secreted in the presence of LPS and 17c-20c ([2]; LPS 5 μg/mL, time 1 h) [pg/mL] | TNF-α secreted in the presence of LPS and 17c-20c ([2]; LPS 5 μg/mL, time 4 h) [pg/mL] | TNF-α secreted in the presence of LPS and 17c-20c ([2]; LPS 5 μg/mL, time 8 h) [pg/mL] | TNF-α secreted in the presence of LPS and 17c-20c ([2]; LPS 5 μg/mL, time 12 h) [pg/mL] | TNF-α secreted in the presence of LPS and 17c-20c ([2]; LPS 5 μg/mL, time 16 h) [pg/mL] | TNF-α secreted in the presence of LPS and 17c-20c ([2]; LPS 5 μg/mL, time 24 h) [pg/mL] | maximum inhibition of LPS induced TNF-α secretion ([2]; LPS 5 μg/mL, 3rd subject) [%] | maximum inhibition of LPS induced TNF-α secretion [2, 3] [%] | TNF-α secreted in the presence of LPS and 18c-20c [2, 4] [% max. response] | TNF-α secreted in the presence of LPS and 18c-20c [2, 5] [% max. response] | TNF-α secreted in the presence of LPS and 18c-20c [2, 6] [% max. response] | TNF-α secreted in the presence of LPS and 18c-20c [2, 7] [% max. response] | TNF-α secreted in the presence of LPS and 18c-20c [2, 8] [% max. response] | other results |
| --- | --- | --- | --- | --- | --- | --- | --- | --- | --- | --- | --- | --- | --- | --- | --- | --- | --- | --- | --- | --- | --- |
| O=C(CCCCCC(=O)OC1O[C@H](COC(=O)c2cc(O)c(O)c(O)c2)[C@@H](OC(=O)c2cc(O)c(O)c(O)c2)[C@H](OC(=O)c2cc(O)c(O)c(O)c2)[C@H]1OC(=O)c1cc(O)c(O)c(O)c1)OC1O[C@H](COC(=O)c2cc(O)c(O)c(O)c2)[C@@H](OC(=O)c2cc(O)c(O)c(O)c2)[C@H](OC(=O)c2cc(O)c(O)c(O)c2)[C@H]1OC(=O)c1cc(O)c(O)c(O)c1 (mixture of isomers) [Compound 20c, 1,1′-O-2,2′,3,3′,4,4′,6,6′-Tetrakis(3,4,5-trihyroxybenzoyl)-β,β′-D,D′-glucopyranosylpimelate] | 0 | 0 | 0 | 184.1 | 230.0 | 0 | 204.2 | 243.6 ± 52.8 | 2370.1 ± 95.7 | 2889.8 ± 383.2 | 2313.2 ± 339.1 | 2628.4 ± 571.0 | 2356.4 ± 400.3 | 45 | 45 | 89.8 ± 9.2 | 65.6 ± 8.3 | 67.1 ± 8.9 | 63.3 ± 4.7 | 63.9 ± 13.9 | IL-1β secretion from h-PBMC's, in words ([1]; h-PBMC's): lowest amounts of IL-1β production; TNF-α secreted in the presence of LPS and 19c / 20c ([2]; compound 0.6 μM added 45 minutes after LPS 1 μg/mL): 109.1 ± 14.9 % max. response; TNF-α secreted in the presence of LPS and 19c / 20c ([2]; compound 1.8 μM added 45 minutes after LPS 1 μg/mL): 110.6 ± 1.3 % max. response; TNF-α secreted in the presence of LPS and 19c / 20c ([2]; compound 3.5 μM added 45 minutes after LPS 1 μg/mL): 62.4 ± 10.2 % max. response; TNF-α secreted in the presence of LPS and 19c / 20c ([2]; compound 5.9 μM added 45 minutes after LPS 1 μg/mL): 69.5 ± 27.9 % max. response; TNF-α secreted in the presence of LPS and 19c / 20c ([2]; compound 11.8 μM added 45 minutes after LPS 1 μg/mL): 98.4 ± 12.1 % max. response |
| O=C(OC[C@H]1O[C@@H](OC(=O)c2cccc(C(=O)O[C@@H]3O[C@H](COC(=O)c4cc(O)c(O)c(O)c4)[C@@H](OC(=O)c4cc(O)c(O)c(O)c4)[C@H](OC(=O)c4cc(O)c(O)c(O)c4)[C@H]3OC(=O)c3cc(O)c(O)c(O)c3)c2)[C@H](OC(=O)c2cc(O)c(O)c(O)c2)[C@@H](OC(=O)c2cc(O)c(O)c(O)c2)[C@@H]1OC(=O)c1cc(O)c(O)c(O)c1)c1cc(O)c(O)c(O)c1 [Compound 18c, 1,1′-O-2,2′,3,3′,4,4′,6,6′-Tetrakis(3,4,5-trihydroxybenzoyl)-β,β′-D-glucopyranosylisophthalate] | 0 | 4.7 ± 8.1 | 3.2 ± 5.5 | 34.1 ± 48.2 | 1266.0 ± 78.3 | 631.2 ± 94.4 | 2113.4 ± 393.0 | 594.6 ± 93.2 | 1523.3 ± 472.8 | 2829.3 ± 52.6 | 2448.1 ± 43.6 | 3956.3 ± 524.5 | 2002.1 ± 95.1 | 35 | 45 | 69.0 ± 4.9 | 71.9 ± 15.2 | 59.5 ± 9.5 | 54.4 ± 15.4 | 60.6 ± 9.9 |  |
